US20160303360A1, “Ultrasonic Transducer and Transdermal Delivery System” (Actuated Medical, Inc., priority 2015, published 2016)

Assays:
[1] = human, in vivo, sc; cited from earlier work
[2] = in vivo; conditions: pig
[3] = pig, in vivo

For enfuvirtide, the “patients experiencing injection site reaction” value [1] is listed as “up to 98%”, the bioavailability [2] is listed as ~30% and the “difference in TEWL between treatment site and control site” value [3] is listed as “not statistically different”.
